How the values were obtained:
algae (mix) = assay: Water and algae mix in a test tube; format: cell-based, green algae; conditions: 10 mMol (2,840 ppm) in 2 ml water and algae mix
Description: Thaxtomin was added to water and algae in a test tube.
Metolachlor (2-chloro-N-(6-ethyl-o-tolyl)-N-[(1RS)-2-methoxy-1-methylethyl]acetamide) is a known pre-emergent herbicide commonly used to control annual grasses and some broadleaves such as Eastern black nightshade and pigweeds.

the tested algae = assay: Purified thaxtomin versus copper sulphate bioassay (text summary of Example 5); format: cell-based; conditions: 2 ppm (commercial recommended rate); two weeks
Description: (§1) Purified thaxtomin was used for a bioassay test and its efficacy evaluated and compared with copper sulphate, an active ingredient for many copper based algaecides. The bioassay was run for two weeks and inhibition of algae growth was evaluated.

Spirogyra spp. = assay: Bioactivity of purified thaxtomin verse CuSO4, algae growth bioassay; format: cell-based; design: key: ++ = visible death; + = growth inhibition; − = no visible growth inhibition; conditions: 2 ppm, two weeks
Description: as §1

Oedogonium spp. = assay: as above; format: cell-based; design: key: ++ = visible death; + = growth inhibition; − = no visible growth inhibition; conditions: 2 ppm, two weeks
Description: as §1

Oscillatoria spp. = assay: as above; format: cell-based; design: key: ++ = visible death; + = growth inhibition; − = no visible growth inhibition; conditions: 2 ppm, two weeks
Description: as §1

Batrachospermum spp. = assay: as above; format: cell-based; design: key: ++ = visible death; + = growth inhibition; − = no visible growth inhibition; conditions: 2 ppm, two weeks
Description: as §1

Rhodymenia spp. = assay: as above; format: cell-based; design: key: ++ = visible death; + = growth inhibition; − = no visible growth inhibition; conditions: 2 ppm, two weeks
Description: as §1

SMILES	Results: appearance of water and algae mix (algae (mix))	efficacy against the tested organisms (the tested algae)	Bioactivity (inhibition of algae growth) (Spirogyra spp.)	Bioactivity (inhibition of algae growth) (Oedogonium spp.)	Bioactivity (inhibition of algae growth) (Oscillatoria spp.)	Bioactivity (inhibition of algae growth) (Batrachospermum spp.)	Bioactivity (inhibition of algae growth) (Rhodymenia spp.)
CCc1cccc(C)c1N(C(=O)CCl)C(C)COC (racemic) [Metolachlor, 2-chloro-N-(6-ethyl-o-tolyl)-N-[(1RS)-2-methoxy-1-methylethyl]acetamide]	did not show any algaestatic and/or algaecidal activity						
O=S(=O)([O-])[O-].[Cu+2] [CuSO4, copper sulphate]		not very effective	+	−	−	−	−

Reference: patent US7989393B2, “Methods of controlling algae with thaxtomin and thaxtomin compositions” (priority 2007, dated 2011)
